The values below come from US20090227578A1, “Azabenzimidazole Derivatives, Their Manufacture and Use as Anti-Cancer Agents” (priority 2005, published 2009).

Assay [1] concerns the target T1, Src (p60c-src, partially purified, Upstate) (Homo sapiens, UniProt P12931).
T1 construct: purchased UBI, Upstate Biotech, Inc
The assay can be described thus: SRC-Inhibitor-Assay, time-resolved fluorescence kinase assay (Src). Type of assay: biochemical. The conditions noted are these: ATP 5 μM; peptide 10 μM; enzyme pre-incubated 15 min at 15° C. with inhibitor. Here is the method:
(§1) SRC-Inhibitor-Assay Parameters:
(§2) Peptides: Ro: NH2-A-E-E-E-I—Y-G-E-F-E-A-K—K—K—K—CONH2, and
(§3) • Ja133-Ro: Ja133-G-Aminocaprylic acid-A-E-E-E-I—Y-G-E-F-E-A-K—K—K—K—CONH2, wherein Ja133 is LightCycler-Red 640-N-hydroxy succinimide ester; • whereby both peptides were synthesized by an optimized solid phase peptide synthesis protocol (Merrifield, Fed. Proc. Fed. Amer. Soc. Exp. Biol. 21 (1962) 412) on a Zinsser SMP350 peptide synthesizer. Shortly, the peptide was assembled on 160 mg (22.8 μmol scale) of a Rink-Linker modified polystyrene solid phase by repeatedly conjugating an twenty fold excess of amino acids each protected by temporary piperidine labile Fmoc- and permanent acid labile tert-Bu-, BOC- and O-tert-Bu-groups depending on the side chain function. The substrate sequence […] was N-terminal additionally mounted with the spacer amino acids Aminocaprylic acid and Glycin. After cleavage of the N-terminal temporary protecting group the still attached and protected peptide was labeled with a 1.5 fold amount of LightCycler-Red 640-N-hydroxy succinimide ester (purchased from Roche Diagnostics GmbH) and triethylamine. After 3 hrs. the resin was washed with Dimethylformamide and Isopropanol until the eluates of the blue resin got colourless. […] The substrate was finally isolated by a preparative reverse phase HPLC purification.
(§4) ATP, Tween 20, 4-(2-hydroxyethyl)-1-piperazineethanesulfonic acid (HEPES) were purchased from Roche Molecular Biochemicals, MgCl2 and MnCl2 were purchased from Merck Eurolab, Tris(2-carboxyethyl)phosphine hydrochloride (TCEP) was purchased from Pierce, 384 Well low volume fluorescence plates was purchased from Falcon.
(§5) At first the enzyme is pre-incubated for 15 min. at 15° C. in aqueous solution with corresponding amounts of inhibitors according to this invention. Then the phosphorylation reaction is started by adding a reaction mixture, containing ATP, Peptide and PT66, and subsequent shaking. The proceeding of this reaction is immediately monitored using time resolved fluorescence spectroscopy in a suitable well plate reader.
(§6) The IC50-values can be obtained from the reaction rates by using a non-linear curve fit (XLfit software (ID Business Solution Ltd., Guilford, Surrey, UK))

Assay [2] concerns the target T2, Lck (p56lck, active, Upstate) (Homo sapiens, UniProt P06239).
T2 construct: purchased UBI, Upstate Biotech, Inc
The experiment in a line: SRC-Inhibitor-Assay, time-resolved fluorescence kinase assay (Lck). Type of assay: biochemical. The conditions noted are these: ATP 5 μM; peptide 10 μM; enzyme pre-incubated 15 min at 15° C. with inhibitor.
Text: The activity of the compounds according to this invention as protein kinase inhibitors, in particular for the src-family tyrosine kinases, was shown by using the following assay.
as §1
Eu-labelled phosphotyrosine antibody:—for Lck Cisbio Mab PT66-K, • for Src EG&G Wallac PT66 Eu-W1024 (all commercially available).
as §2
as §3, with “purification. The purification yielded 12.2 mg RP-HPLC single peak pure blue material (lyophilisate). The identity was proven by MALDI mass spectroscopy [2720.0]. • Enzymes: Upstate Lck (p56^lck, active), Upstate Src (p60^c-src, partially purified) were purchased from UBI, Upstate Biotech, Inc. Time-resolved Fluorescence Assay: Reader: Perkin Elmer, Wallac Viktor 1420-040 multilabel counter; Liquid handling system: Beckman Coulter, Biomek 2000.” for “purification.”
as §4, §5, §6

T2 sequence (P06239 whole entry): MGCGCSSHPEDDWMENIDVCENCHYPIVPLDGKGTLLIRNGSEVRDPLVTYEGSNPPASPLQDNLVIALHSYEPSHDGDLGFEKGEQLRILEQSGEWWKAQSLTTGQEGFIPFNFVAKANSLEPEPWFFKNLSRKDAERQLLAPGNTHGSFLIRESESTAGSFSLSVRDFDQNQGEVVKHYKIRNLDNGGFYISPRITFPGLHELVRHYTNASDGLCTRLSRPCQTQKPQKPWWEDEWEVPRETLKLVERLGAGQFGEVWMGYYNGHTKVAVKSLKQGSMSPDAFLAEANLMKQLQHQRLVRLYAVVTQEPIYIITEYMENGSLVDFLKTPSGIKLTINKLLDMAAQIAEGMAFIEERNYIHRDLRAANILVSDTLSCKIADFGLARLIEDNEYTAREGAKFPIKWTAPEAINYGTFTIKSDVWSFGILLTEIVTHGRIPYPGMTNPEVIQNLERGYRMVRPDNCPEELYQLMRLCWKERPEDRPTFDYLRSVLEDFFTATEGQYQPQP
T1 sequence (P12931 whole entry): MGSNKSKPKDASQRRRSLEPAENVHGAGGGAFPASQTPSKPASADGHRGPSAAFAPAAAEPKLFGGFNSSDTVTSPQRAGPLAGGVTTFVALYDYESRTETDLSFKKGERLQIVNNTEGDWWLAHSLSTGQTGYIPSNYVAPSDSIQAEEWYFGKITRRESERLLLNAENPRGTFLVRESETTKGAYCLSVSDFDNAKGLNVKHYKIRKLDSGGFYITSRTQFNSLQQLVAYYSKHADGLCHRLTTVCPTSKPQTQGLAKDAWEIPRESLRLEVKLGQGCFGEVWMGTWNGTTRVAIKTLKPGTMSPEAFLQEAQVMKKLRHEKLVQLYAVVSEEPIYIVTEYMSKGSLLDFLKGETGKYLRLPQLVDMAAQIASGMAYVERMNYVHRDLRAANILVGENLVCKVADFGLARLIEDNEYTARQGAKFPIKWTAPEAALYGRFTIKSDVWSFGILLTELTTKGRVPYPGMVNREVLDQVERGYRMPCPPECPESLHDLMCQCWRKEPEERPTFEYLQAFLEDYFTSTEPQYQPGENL

For the compound `Cc1ccc(NC(=O)/C=C/c2ccncc2)cc1C(=O)Nc1cnc2[nH]c(-c3ccccc3)nc2c1` [Example 1-1, 2-Methyl-N-(2-phenyl-3H-imidazo[4,5-b]pyridin-6-yl)-5-((E)-3-pyridin-4-yl-acryloylamino)-benzamide], the half-maximal inhibitory concentration (IC50) (in general, the midpoint of a concentration-inhibition curve) fell in the range of 100 to 1000 nM in assay [1] and 10 to 100 nM in assay [2].
Taken in the same sequence, the figures for `Cc1ccc(NC(=O)/C=C/c2cccnc2)cc1C(=O)Nc1cnc2[nH]c(-c3ccccc3)nc2c1` [Example 1-2, 2-Methyl-N-(2-phenyl-3H-imidazo[4,5-b]pyridin-6-yl)-5-((E)-3-pyridin-3-yl-acryloylamino)-benzamide] were 10 to 100 nM and 10 to 100 nM.
In the case of `Cc1ccc(NC(=O)c2ccc(N3CCOCC3)cc2)cc1C(=O)Nc1cnc2[nH]c(-c3ccccc3)nc2c1` [Example 1-3, 2-Methyl-5-(4-morpholin-4-yl-benzoylamino)-N-(2-phenyl-3H-imidazo[4,5-b]pyridin-6-yl)-benzamide], the IC50 was determined as 43 nM in assay [1] and 64 nM in assay [2].
As to `Cc1ccc(NC(=O)/C=C/c2ccccc2)cc1C(=O)Nc1cnc2[nH]c(-c3ccccc3)nc2c1` [Example 1-4, 2-Methyl-5-[(E)-(3-phenyl-acryloyl)amino]-N-(2-phenyl-3H-imidazo[4,5-b]pyridin-6-yl)-benzamide], the IC50 in assay [1] and in assay [2] was 10 to 100 nM in each case.
On to `Cc1ccc(NC(=O)c2ccccc2)cc1C(=O)Nc1cnc2[nH]c(-c3ccccc3)nc2c1` [Example 1-5, 5-Benzoylamino-2-methyl-N-(2-phenyl-3H-imidazo[4,5-b]pyridin-6-yl)-benzamide], for which the IC50 in assay [1] and in assay [2] was 10 to 100 nM throughout.
`Cc1ccc(NC(=O)c2cccc(-c3ccccc3)c2)cc1C(=O)Nc1cnc2[nH]c(-c3ccccc3)nc2c1` [Example 1-6, Biphenyl-3-carboxylic acid[4-methyl-3-(2-phenyl-3H-imidazo[4,5-b]pyridin-6-ylcarbamoyl)-phenyl]-amide]: the figures for the IC50 in assay [1] and in assay [2] were 10 to 100 nM and 100 to 1000 nM, respectively.
Take `O=C(Nc1ccc(Cl)c(C(=O)Nc2cnc3[nH]c(-c4ccccc4)nc3c2)c1)c1ccc(N2CCOCC2)cc1` [Example 2-1, 2-Chloro-5-(4-morpholin-4-yl-benzoylamino)-N-(2-phenyl-3H-imidazo[4,5-b]pyridin-6-yl)-benzamide]: the IC50 in assay [1] and in assay [2] was 10 to 100 nM in each case.
The compound `O=C(/C=C/c1ccccc1)Nc1ccc(Cl)c(C(=O)Nc2cnc3[nH]c(-c4ccccc4)nc3c2)c1` [Example 2-2, 2-Chloro-5-[(E)-(3-phenyl-acryloyl)amino]-N-(2-phenyl-3H-imidazo[4,5-b]pyridin-6-yl)-benzamide] showed an IC50 in assay [2] of 10 to 100 nM.
Take `O=C(Nc1ccc(Cl)c(C(=O)Nc2cnc3[nH]c(-c4ccccc4)nc3c2)c1)c1cccc(-c2ccccc2)c1` [Example 2-4, Biphenyl-3-carboxylic acid[4-chloro-3-(2-phenyl-3H-imidazo[4,5-b]pyridin-6-ylcarbamoyl)-phenyl]-amide]: the IC50 in assay [1] came to 64 nM; in assay [2], 200 nM.
As for `O=C(Nc1ccc(Cl)c(C(=O)Nc2cnc3[nH]c(-c4ccccc4)nc3c2)c1)c1ccccc1` [Example 2-5, 5-Benzoylamino-2-chloro-N-(2-phenyl-3H-imidazo[4,5-b]pyridin-6-yl)-benzamide], the 50% inhibitory concentration (IC50) in assay [2] was 10 to 100 nM.
